{"source": "patent US7629310B2", "about": "“RhoB as a suppressor of cancer cell growth, cell transformation, and metastasis” (University of South Florida, priority 2000, dated 2009)", "key": {"RhoB promoter [1]": {"system": "RhoB promoter", "test": "RhoB promoter transcriptional activity (luciferase reporter) in human cancer cell lines A-549, Panc-1, C33A", "type": "cell-based", "settings": "for RhoB Promoter transcriptional activity (% inhibition): vs pcDNA3 control", "source_text": "Gene Constructs and RhoB Promoter Transcriptional Activity Assay. Constitutively active H-Ras61L, K-RasV12, N-RasV12, and dominant negative […]-Ras were kind gifts from Dr. Channing Der (University of North Carolina) (Khosravi-Far, R. et al., Mol Cell Biol, 1995, 15:6443-53; Quilliam, L. A. et al., Mol Cell Biol, 1994, 14:1113-21). Wild-type RhoA and RhoB were subcloned into hemaglutinin (HA)-tagged pcDNA3 (INVITROGEN). The orientation and the sequences of these genes were confirmed by DNA sequencing facilities at the H. Lee Moffitt Cancer Center, Tampa, Fla. RhoB promoter construct pGEI was kindly provided by Dr Y. Monden (Banyu Tsukuba Research, Japan) (Nakamura et al., 1996). pCMV-β-galactosidase vector was purchased from INVITROGEN. The plasmid containing CA-, DN-PI3K, Mek and Akt were kindly provided by Dr. Julie Y. Djeu (H. Lee Moffitt Cancer and Research Institute, Tampa, Fla.) (Jiang, K. et al., Blood, 2003, 101:236-44). β-galactosidase activity and luciferase assay kits were purchased from PROMEGA Corporation, Madison, Wis. The serum response element (SRE) reporter was provided by Dr. Richard Jove, H. Lee Moffitt Cancer and Research Institute, Tampa, Fla. […] Richard Jove, Oncology program, H. Lee Moffitt Cancer and Research Institute, Tampa, Fla. […] Human EGFR, ErbB2 cDNA construct were kindly provided by Dr. Noreen Luetteke, H. Lee Moffitt Cancer and Research Institute, Tampa, Fla. (Luetteke, N. C. et al., Genes Dev, 1994, 8:399-413). DNA transfection was performed with the standard lipofectamine protocol (INVITROGEN). Briefly, cells were plated in 60-mm plates, pGEI plasmid was used at 2 μg per plate, whereas all the other plasmids were used at 0.1-1.0 μg per plate. After transfection the cells were grown for another 36-48 h. Cells were then washed twice with PBS and lyzed in Promega Passive Lysis Buffer. Aliquots of the lysates were then used to measure the luciferase and β-galactosidase activities. The luciferase values were first divided by β-galactosidase values. The RhoB promoter transcriptional activity was determined by dividing the luciferase/β-Gal values from oncogene-transfected cells by those from pcDNA3-transfected cells. […] All the samples were performed in triplicate and the averages of 3 independent experiments were reported here. Proteins that induce malignant transformation and those that suppress tumorigenesis most likely antagonize each other's functions. […] Du, W. et al., Mol Cell Biol, 1999, 19:1831-40; Du, W. and Prendergast, G. C., Cancer Res, 1999, 59:5492-6). An objective of the experiments described herein was to determine whether oncogenes that are prevalent in human cancers suppress RhoB expression, and whether RhoB antagonizes the ability of these oncogenes to induce malignant transformation. To this end, the effects of several oncogenes on RhoB promoter transcriptional activity were first evaluated. NIH3T3 cells and human cancer cell lines derived from lung (A-549), pancreatic (Panc-1) and cervical (C33A) tumors were transiently transfected with pcDNA3 empty vectors or pcDNA3 constructs containing various oncogenes along with full length RhoB promoter firefly luciferase reporter and SRE-renilla luciferase reporter as well as a β-gal reporter for controlling transfection efficiency as described in the Materials and Methods section."}, "RhoB promoter [2]": {"system": "RhoB promoter", "test": "RhoB promoter transcriptional activity in H-Ras/3T3 cells", "type": "cell-based", "settings": "treated 12 hours (FIG. 6B)", "source_text": "The cell lysates were processed as in FIGS. 5A-5D. […] The cell lysates were processed as in FIGS. 5A-5D. […] The cell lysates were processed as in FIGS. 5A-5D. Gene Constructs and RhoB Promoter Transcriptional Activity Assay. Constitutively active H-Ras61L, K-RasV12, N-RasV12, and dominant negative […]-Ras were kind gifts from Dr. Channing Der (University of North Carolina) (Khosravi-Far, R. et al., Mol Cell Biol, 1995, 15:6443-53; Quilliam, L. A. et al., Mol Cell Biol, 1994, 14:1113-21). Wild-type RhoA and RhoB were subcloned into hemaglutinin (HA)-tagged pcDNA3 (INVITROGEN). The orientation and the sequences of these genes were confirmed by DNA sequencing facilities at the H. Lee Moffitt Cancer Center, Tampa, Fla. RhoB promoter construct pGEI was kindly provided by Dr Y. Monden (Banyu Tsukuba Research, Japan) (Nakamura et al., 1996). pCMV-β-galactosidase vector was purchased from INVITROGEN. The plasmid containing CA-, DN-PI3K, Mek and Akt were kindly provided by Dr. Julie Y. Djeu (H. Lee Moffitt Cancer and Research Institute, Tampa, Fla.) (Jiang, K. et al., Blood, 2003, 101:236-44). β-galactosidase activity and luciferase assay kits were purchased from PROMEGA Corporation, Madison, Wis. […] The RhoB promoter transcriptional activity was determined by dividing the luciferase/β-Gal values from oncogene-transfected cells by those from pcDNA3-transfected cells. […]"}, "RhoB protein levels": {"system": "RhoB protein levels", "test": "RhoB protein level by Western blotting in PANC-1 cells", "type": "cell-based, human", "settings": "treated 48 hours (FIG. 7E)", "protocol": "H-Ras/3T3 cells were treated with (FIG. 7A) different concentrations of LY294002 for 48 hrs or (FIG. 7B) LY294002 (20 μM) for different time intervals. The cells were then lysed and analyzed for RhoB and RhoA protein levels by Western Blotting with anti-RhoB and anti-RhoA; the same filter was re-probed with antiβ-actin for loading control. NIH3T3 cells (FIG. 7C) were transiently transfected with various genes as indicated for 24 hours; and then treated with either DMSO vehicle or LY294002 or 5-FU alone or in combination for another 48 hours. The cells were analyzed for RhoB, RhoA, and β-actin protein levels as described above. […] The cells were analyzed for RhoB and RhoA protein levels by Western Blotting with anti-RhoB and anti-RhoA; the same filter was re-probed with anti-β-actin, anti-HA and anti-pan-Akt antibodies. PANC-1 cells (FIG. 7E) and A549 cells (FIG. 7F) were treated PD, LY or 5-FU as indicated for 48 hours; then analyzed for RhoB and RhoA protein levels by Western Blotting as described above.\nWestern Blot Analysis. […] Antigen-bound antibody was detected by enhanced chemiluminescence Western blotting kit ([…] […] BIOTECH), Piscataway, N.J.). β-actin was detected as an internal loading control."}, "NIH3T3 cells": {"system": "NIH3T3 cells", "test": "5-FU-induced apoptosis (Annexin V, flow cytometry) in NIH3T3 cells", "type": "cell-based", "settings": "NIH3T3, transfected 24 hours then 5-FU 48 hours (FIG. 10A); control 28-30%", "protocol": "Apoptosis Assay. Cells were collected by trypsinization, washed in wash buffer and stained with Annexin V and 7-AAD according to manufacturer's recommendation (PharMingen, San Diego, Calif.). Data acquisition and analysis was performed by the Flow Cytometry Core Facility at the H. Lee Moffitt Cancer Center (Tampa, Fla.). All the samples were performed in duplicate and a representative of 3 independent experiments were reported here."}, "RhoB promoter [3]": {"system": "RhoB promoter", "test": "RhoB promoter transcriptional activity (luciferase reporter) in NIH3T3 cells", "type": "cell-based", "source_text": "Gene Constructs and RhoB Promoter Transcriptional Activity Assay. Constitutively active H-Ras61L, K-RasV12, N-RasV12, and dominant negative […]-Ras were kind gifts from Dr. Channing Der (University of North Carolina) (Khosravi-Far, R. et al., Mol Cell Biol, 1995, 15:6443-53; Quilliam, L. A. et al., Mol Cell Biol, 1994, 14:1113-21). Wild-type RhoA and RhoB were subcloned into hemaglutinin (HA)-tagged pcDNA3 (INVITROGEN). The orientation and the sequences of these genes were confirmed by DNA sequencing facilities at the H. Lee Moffitt Cancer Center, Tampa, Fla. RhoB promoter construct pGEI was kindly provided by Dr Y. Monden (Banyu Tsukuba Research, Japan) (Nakamura et al., 1996). pCMV-β-galactosidase vector was purchased from INVITROGEN. The plasmid containing CA-, DN-PI3K, Mek and Akt were kindly provided by Dr. Julie Y. Djeu (H. Lee Moffitt Cancer and Research Institute, Tampa, Fla.) (Jiang, K. et al., Blood, 2003, 101:236-44). β-galactosidase activity and luciferase assay kits were purchased from PROMEGA Corporation, Madison, Wis. The serum response element (SRE) reporter was provided by Dr. Richard Jove, H. Lee Moffitt Cancer and Research Institute, Tampa, Fla. (Turkson, J. et al., Mol Cell Biol, 1999, 19:7519-28). […] Richard Jove, Oncology program, H. Lee Moffitt Cancer and Research Institute, Tampa, Fla. (Turkson, J. et al., Mol Cell Biol, 1999, 19:7519-28). […] (Luetteke, N. C. et al., Genes Dev, 1994, 8:399-413). DNA transfection was performed with the standard lipofectamine protocol (INVITROGEN). […] After transfection the cells were grown for another 36-48 h. Cells were then washed twice with PBS and lyzed in Promega Passive Lysis Buffer. Aliquots of the lysates were then used to measure the luciferase and β-galactosidase activities. The luciferase values were first divided by β-galactosidase values. The RhoB promoter transcriptional activity was determined by dividing the luciferase/β-Gal values from oncogene-transfected cells by those from pcDNA3-transfected cells. […] All the samples were performed in triplicate and the averages of 3 independent experiments were reported here."}}}
{"molecule": "O=c1cc(N2CCOCC2)oc2c(-c3ccccc3)cccc12", "note": "[LY294002]", "values": [{"measurement": "5-FU induction of RhoB promoter activity", "setting": "RhoB promoter [1]; PANC-1 and A-549 cells expressing mutated K-Ras", "value": "sensitize these cells to 5-FU induction of RhoB promoter activity"}, {"measurement": "induction of RhoB promoter activity", "setting": "RhoB promoter [2]", "value": 1.7, "unit": "fold"}, {"measurement": "induction of RhoB protein levels", "setting": "RhoB protein levels", "value": 8, "unit": "fold"}]}
{"molecule": "COc1cccc(-c2cc(=O)c3ccccc3o2)c1N", "note": "[PD98059]", "values": [{"measurement": "induction of RhoB protein levels", "setting": "RhoB protein levels", "value": "no induction"}]}
{"molecule": "Akt: Akt expression construct transfected into NIH3T3 cells", "values": [{"measurement": "5-FU apoptotic rate after transfection", "setting": "NIH3T3 cells", "value": 17, "unit": "%"}]}
{"molecule": "ErbB2: human ErbB2 cDNA construct", "values": [{"measurement": "RhoB Promoter transcriptional activity (% inhibition)", "setting": "RhoB promoter [1]; A549, transiently transfected 36 hrs", "value": "74 ± 4.3", "unit": "%"}, {"measurement": "RhoB Promoter transcriptional activity (% inhibition)", "setting": "RhoB promoter [1]; C33A, transiently transfected 36 hrs", "value": "69 ± 3.6", "unit": "%"}, {"measurement": "RhoB Promoter transcriptional activity (% inhibition)", "setting": "RhoB promoter [1]; PANC1, transiently transfected 36 hrs", "value": "68 ± 4.1", "unit": "%"}, {"measurement": "inhibition of RhoB promoter activity", "setting": "RhoB promoter [3]; NIH3T3, in the presence of N17-H-Ras", "value": 18, "unit": "%"}, {"measurement": "RhoB Promoter transcriptional activity (% inhibition)", "setting": "RhoB promoter [3]; NIH3T3, transiently transfected 36 hrs, vs pcDNA3 control", "value": "79 ± 3.9", "unit": "%"}]}
